For data set [1] the following is noted: human, in vivo; cited from earlier work.
Data set [2] concerns vocal cords and respiratory muscles of rats. Particulars: rat, in vivo.
Another data set concerns rat. As to conditions: in vivo; cited from earlier work.
Data set [3] addresses T1, recombinant human VMAT2 transporters (Homo sapiens, UniProt Q05940).
T1 construct: expressed in transfected cells; host or cells: HEK-293
The class given is binding.

The target in data set [4] is vesicular monoamine transporter-VMAT (Homo sapiens, UniProt Q05940). The experiment in a line: cell-based.
Sequence of vesicular monoamine transporter-VMAT (Q05940 whole entry): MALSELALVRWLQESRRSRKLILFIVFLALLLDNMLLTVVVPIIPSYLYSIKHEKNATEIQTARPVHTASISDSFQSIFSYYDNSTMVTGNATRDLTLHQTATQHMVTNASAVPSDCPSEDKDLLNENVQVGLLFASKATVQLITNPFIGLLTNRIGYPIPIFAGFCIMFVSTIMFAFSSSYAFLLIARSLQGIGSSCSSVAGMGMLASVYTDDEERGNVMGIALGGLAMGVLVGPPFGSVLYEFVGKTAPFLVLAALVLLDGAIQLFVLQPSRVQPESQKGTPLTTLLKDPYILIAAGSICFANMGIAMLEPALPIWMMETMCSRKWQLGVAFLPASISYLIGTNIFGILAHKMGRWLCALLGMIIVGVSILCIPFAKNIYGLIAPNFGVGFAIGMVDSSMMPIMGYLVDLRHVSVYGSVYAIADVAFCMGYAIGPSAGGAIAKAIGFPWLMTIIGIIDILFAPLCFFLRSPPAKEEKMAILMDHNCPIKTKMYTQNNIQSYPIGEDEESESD
The target of data set [5] is recombinant human alpha 1A adrenergic receptor (ADR1A) (Homo sapiens, UniProt P35348). The class given is binding.
Data set [6] has as its system T2, alpha 1 adrenergic receptor subtypes (1A, 1B, 1D).
T2 construct: rows headed: BA at all subtypes; other: subnanomolar range; Ki at alpha 1 adrenergic receptor subtypes; other: result in words
It counts as binding, human.

Data set [7] concerns alpha 1 subtypes (1A, 1B, 1D). It counts as cell-based, human.
Data set [8] concerns the target T3, recombinant human alpha 1B adrenergic receptor (ADR1B) (Homo sapiens, UniProt P35368).
Data set [9] has as its target T4, recombinant human alpha 1D adrenergic receptor (ADR1D) (Homo sapiens, UniProt P25100).
T4 sequence (P25100 1-572): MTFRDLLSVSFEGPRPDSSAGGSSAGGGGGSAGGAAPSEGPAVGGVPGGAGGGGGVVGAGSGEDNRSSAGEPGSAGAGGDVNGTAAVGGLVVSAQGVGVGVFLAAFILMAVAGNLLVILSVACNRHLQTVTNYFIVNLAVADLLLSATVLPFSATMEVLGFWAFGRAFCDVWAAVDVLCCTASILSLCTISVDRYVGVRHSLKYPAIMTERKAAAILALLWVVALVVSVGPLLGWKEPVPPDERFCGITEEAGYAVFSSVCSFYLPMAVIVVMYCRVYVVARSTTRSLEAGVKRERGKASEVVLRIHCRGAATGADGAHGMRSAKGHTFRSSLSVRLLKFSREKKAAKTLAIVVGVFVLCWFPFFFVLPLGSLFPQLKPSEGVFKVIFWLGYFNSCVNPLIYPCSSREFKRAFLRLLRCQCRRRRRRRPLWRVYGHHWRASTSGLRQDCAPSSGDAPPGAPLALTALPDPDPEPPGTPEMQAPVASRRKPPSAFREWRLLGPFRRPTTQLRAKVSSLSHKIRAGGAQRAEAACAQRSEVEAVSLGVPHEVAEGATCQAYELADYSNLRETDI

The subject of data set [10] is VC and laryngeal muscles/laryngospasm. Particulars: rat, in vivo; cited from earlier work.
The next data set has as its system neuromuscular blockade. Particulars: human, in vivo; cited from earlier work.
For data set [11], the target named is T5, α-1 adrenergic receptor 1A subtype (Homo sapiens, UniProt P35348).
T5 sequence (P35348 1-466): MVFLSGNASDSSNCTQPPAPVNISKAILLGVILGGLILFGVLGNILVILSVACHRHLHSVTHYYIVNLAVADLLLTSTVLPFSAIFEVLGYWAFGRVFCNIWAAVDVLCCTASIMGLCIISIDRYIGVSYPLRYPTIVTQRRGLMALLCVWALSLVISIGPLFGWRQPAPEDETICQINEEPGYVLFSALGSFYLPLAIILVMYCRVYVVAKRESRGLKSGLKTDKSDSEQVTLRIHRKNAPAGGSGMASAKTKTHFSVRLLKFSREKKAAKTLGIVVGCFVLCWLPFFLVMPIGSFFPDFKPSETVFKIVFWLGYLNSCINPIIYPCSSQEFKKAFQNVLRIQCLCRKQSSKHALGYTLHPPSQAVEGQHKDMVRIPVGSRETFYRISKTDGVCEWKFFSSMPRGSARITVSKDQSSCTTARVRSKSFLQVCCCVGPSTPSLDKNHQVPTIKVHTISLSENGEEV
Particulars: cited from earlier work.

Data set [12] deals with T3, recombinant human alpha 1B adrenergic receptor (ADR1B). Briefly: biochemical.
Data set [13] addresses T4, recombinant human alpha 1D adrenergic receptor (ADR1D). Briefly: biochemical.

Entries after “also recorded” stand apart in the source; their conditions may differ. Structures can show the parent of a compound that is named as a salt.

T3 sequence (P35368 whole entry): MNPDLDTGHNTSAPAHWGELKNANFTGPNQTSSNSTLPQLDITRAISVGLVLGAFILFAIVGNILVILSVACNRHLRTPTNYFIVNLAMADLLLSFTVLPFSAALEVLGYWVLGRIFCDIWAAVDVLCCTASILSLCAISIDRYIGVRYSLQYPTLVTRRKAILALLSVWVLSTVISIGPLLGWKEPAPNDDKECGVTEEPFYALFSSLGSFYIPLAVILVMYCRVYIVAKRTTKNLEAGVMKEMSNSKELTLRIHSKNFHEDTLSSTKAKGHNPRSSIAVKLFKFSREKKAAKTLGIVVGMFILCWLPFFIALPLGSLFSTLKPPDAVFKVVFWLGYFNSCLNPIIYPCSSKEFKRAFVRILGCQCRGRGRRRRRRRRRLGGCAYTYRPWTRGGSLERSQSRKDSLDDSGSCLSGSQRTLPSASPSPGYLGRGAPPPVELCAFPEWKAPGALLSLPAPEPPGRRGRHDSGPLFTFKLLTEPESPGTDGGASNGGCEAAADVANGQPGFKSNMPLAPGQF
T1 sequence (Q05940 whole entry): as the sequence (Q05940 whole entry) above

As for `C[C@H](Cc1cc2c(c(C(N)=O)c1)N(CCCO)CC2)NCCOc1ccccc1OCC(F)(F)F` [SILODOSIN, (3-Hydroxypropyl)-5-[(2R)-2-({2-[2-(2,2,2trifluoroethoxy)phenoxy]ethyl}amino)propyl]-2,3-d hydro-1H-indole-7-carboxamide], in [1], the “dizziness and orthostatic hypotension” value was 3%; the subjects with syncope is 1/897.
For the molecule `COC(=O)[C@H]1[C@@H](OC(=O)c2ccccc2)C[C@@H]2CC[C@H]1N2C` [cocaine], the “vocal cord closure and chest wall rigidity effect (specific to F/FA)” value in [2] is given as “not demonstrated”. Besides, in the data set with rat, the LD85 is given as 70 mg/kg.
Consider `CC(=O)Oc1ccc2c3c1O[C@H]1[C@@H](OC(C)=O)C=C[C@H]4[C@@H](C2)N(C)CC[C@@]341` [heroin], for which the “vocal cord closure and chest wall rigidity effect (specific to F/FA)” value in data set [2] is listed as “not demonstrated”.
In general, IC50 refers to the concentration at which inhibition is half-maximal. Low values mean higher potency, high ones lower potency. With `CN[C@@H](C)Cc1ccccc1` [methamphetamine], in data set [3], the “binding to VMAT2 transporter” value is “bind to recombinant human VMAT2 transporters”. In data set [4], this molecule showed an IC50 of around 4000 nM. For the same molecule, the “vocal cord closure and chest wall rigidity effect (specific to F/FA)” value in data set [2] is “not demonstrated”. In addition, in the data set with rat, the LD90 is reported as 100 mg/kg.
Consider `CN1CC[C@]23c4c5ccc(O)c4O[C@H]2[C@@H](O)C=C[C@H]3[C@H]1C5` [morphine], for which the “binding at alpha 1A (bind all alpha 1 subtypes)” value in data set [5] is given as “not morphine or naloxone bind”. Moreover, the “binding at alpha 1 adrenergic receptor subtypes” value in [6] is “not morphine; also recorded: neither morphine (MSO4) or naloxone had any notable or relevant binding activity”. Further, the “act as antagonists at all alpha 1 subtypes” value in data set [7] was “not morphine”. The “binding at alpha 1B (bind all alpha 1 subtypes)” value in data set [8] is listed as “not morphine or naloxone bind”. In addition, the “binding at alpha 1D (bind all alpha 1 subtypes)” value in data set [9] is on record as “not morphine or naloxone bind”.
As to `C=CCN1CC[C@]23c4c5ccc(O)c4O[C@H]2C(=O)CC[C@@]3(O)[C@H]1C5.Cl` [naloxone, 17-Allyl-4,5α-epoxy-3,14-dihydroxymorphinan-6-one hydrochloride], the “binding at alpha 1 adrenergic receptor subtypes” value in [6] is given as “neither morphine (MSO4) or naloxone had any notable or relevant binding activity”. Further, the “impact on the effects of F on VC and laryngeal muscles/laryngospasm” value in [10] is “minimal impact”.
Regarding `NC[C@H](O)c1ccc(O)c(O)c1` [norepinephrine], the “binding at the 1D subtype over 1A and 1B receptor subtypes, respectively” value in data set [9] was 9-20 fold.
Turning to `C=CC[N+]1([C@H]2C[C@H]3[C@@H]4CC[C@H]5C[C@H](O)[C@@H](N6CCOCC6)C[C@]5(C)[C@H]4CC[C@]3(C)[C@H]2OC(C)=O)CCCC1` [rocuronium bromide, 1-[17β-(acetyloxy)-3α-hydroxy-2β-(4-morpholinyl)-5α-androstan-16β-yl]-1-(2-propenyl)pyrrolidinium bromide], in the data set on neuromuscular blockade, the “time to completed intubation in most patients” value is at most 2 min; the “time to excellent or good intubating conditions in most patients” value is recorded as “less than 2 minutes”; the “time to maximum blockade in most patients” value is recorded as “less than 3 minutes”; the “time to neuromuscular block sufficient for intubation (80% block or greater), median (range)” value is reported as 1 (0.4-6) minute(s).
Consider `C[N+](C)(C)CCOC(=O)CCC(=O)OCC[N+](C)(C)C` [succinylcholine], for which, in the data set with neuromuscular blockade, the “onset of effect given intramuscularly” value was 2 to 3 min, the “persistence of maximum blockade” value was “about 2 minutes”, the “recovery time after maximum blockade” value is 4 to 6 min and the “time until neuromuscular blockade develops” value is “about 1 minute”.
What is called Ki is the equilibrium dissociation constant of an inhibitor or competing ligand from its target. Take `CCOc1ccccc1OCCN[C@H](C)Cc1ccc(OC)c(S(N)(=O)=O)c1` [tamsulosin, (−)-(R)-5-[2-[[2-(o-Ethoxyphenoxy)ethyl]amino]propyl]-2-methoxybenzenesulfon-amide, monohydrochloride]: the “binding affinity at the 1A subtype greater over other α-1 antagonists” value in data set [11] was 12-30 times. In addition, the inhibitory constant (Ki) in [12] and in data set [13] was below 1 nM throughout.

The record behind these values is patent publication US20230372302A1 (priority 2019, published 2023).
